Patent US12622887B2 (priority 2019, dated 2026)

Assays:
αKlotho = assay: Release of soluble αKlotho in supernatant of primary tubule cell cultures (RPTEC), ELISA; format: cell-based; conditions: for Average Klotho value: RPTEC supernatant
Procedure: Concentrations of H2O2 equal to 0.1, 0.2, 0.5 up to 1 mM were also tested. […] The soluble aKlotho analysis was performed using the commercial test ELISA lbl code 277789 following the manufacturer's instructions. […] The soluble aKlotho analysis was performed using ELISA lbl test.

[1] = system: primary renal tubule cells; assay: MTT test, cell proliferation/viability of primary renal tubule cells; format: cell-based; conditions: tubule cells exposed to H2O2 0.5 mM alone

Question: `C[N+](C)(C)C[C@H](O)CC(=O)[O-]` [Carnitine, L-Carnitine] was tested. Which “Average Klotho value” (αKlotho; pre-treatment 12 h at 5 mM, then 6 h Gentamicin sulphate 10 mM) did it give?
Answer: 6.68 pg/mL

Question: And the “Average Klotho value” (αKlotho; pre-treatment 12 h at 5 mM, then 6 h Iodixanol 100 mg/ml)?
Answer: 77.06 pg/mL

Question: What about the “Average Klotho value” (αKlotho; pretreatment 12 h at 5 mM, then 6 h H2O2 0.1 mM) of the same compound?
Answer: 140.25 pg/mL

Question: Which results are given for `CC(=O)N(CC(O)CN(C(C)=O)c1c(I)c(C(=O)NCC(O)CO)c(I)c(C(=O)NCC(O)CO)c1I)c1c(I)c(C(=O)NCC(O)CO)c(I)c(C(=O)NCC(O)CO)c1I` (centres unmarked) [Iodixanol]?
Answer: Change in Klotho compared to the basal condition (αKlotho; Iodixanol contrast medium only, 6 hours): drastic reduction in Klotho; Average Klotho value (αKlotho; Iodixanol 100 mg/ml 6 h alone): 0 pg/mL

Question: `OO` [H2O2] was tested. Which “Cell viability (MTT test)” value [1] did it give?
Answer: significant reduction in cell viability

Question: And the “Lowest concentration able to induce a statistically significant reduction in Klotho” value (αKlotho; 6 hours exposure of primary tubule cells)?
Answer: 0.1 mM

Question: And the “Average Klotho value” (αKlotho; H2O2 6 h alone (0.1 mM), no pretreatment)?
Answer: 55.42 pg/mL
